System: 945468-187-T-J3-PDC spheroids with HUVEC/MSC, viability
Test: Anticancer human tumor 945468-187-T-J3-PDC patient-derived rectal carcinoma cell line growth inhibition [PI3K]
Settings: for IC50: curve of first compound; for viability, T/C: stronger effect = lower value
Summary of the method: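 We assembled tumor spheroids that included a stromal compartment of HUVEC and MSCs, then exposed them to targeted agents alone and together with PI3K pathway inhibitors. Concentration series descended by half-log from clinically achievable Cmax levels. Viability served as the endpoint.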

[1] = second compound 0.00316 µM, first compound 0.0316 µM
[2] = second compound 0.00316 µM, first compound 0.1 µM
[3] = second compound 0.00316 µM, first compound 0.316 µM
[4] = second compound 0.00316 µM, first compound 1 µM
[5] = second compound 0.00316 µM, first compound 3.16 µM
[6] = second compound 0.00316 µM, first compound 10 µM
[7] = second compound 0.01 µM, first compound 0.0316 µM
[8] = second compound 0.01 µM, first compound 0.1 µM
[9] = second compound 0.01 µM, first compound 0.316 µM
[10] = second compound 0.01 µM, first compound 1 µM
[11] = second compound 0.01 µM, first compound 3.16 µM
[12] = second compound 0.01 µM, first compound 10 µM
[13] = second compound 0.0316 µM, first compound 0.0316 µM
[14] = second compound 0.0316 µM, first compound 0.1 µM
[15] = second compound 0.0316 µM, first compound 0.316 µM
[16] = second compound 0.0316 µM, first compound 1 µM
[17] = second compound 0.0316 µM, first compound 3.16 µM
[18] = second compound 0.0316 µM, first compound 10 µM
[19] = second compound 0.1 µM, first compound 0.0316 µM
[20] = second compound 0.1 µM, first compound 0.1 µM
[21] = second compound 0.1 µM, first compound 0.316 µM
[22] = second compound 0.1 µM, first compound 1 µM
[23] = second compound 0.1 µM, first compound 3.16 µM
[24] = second compound 0.1 µM, first compound 10 µM
[25] = second compound 0.316 µM, first compound 0.0316 µM
[26] = second compound 0.316 µM, first compound 0.1 µM
[27] = second compound 0.316 µM, first compound 0.316 µM
[28] = second compound 0.316 µM, first compound 1 µM
[29] = second compound 0.316 µM, first compound 3.16 µM
[30] = second compound 0.316 µM, first compound 10 µM
[31] = second compound 1 µM, first compound 0.0316 µM
[32] = second compound 1 µM, first compound 0.1 µM
[33] = second compound 1 µM, first compound 0.316 µM
[34] = second compound 1 µM, first compound 1 µM
[35] = second compound 1 µM, first compound 3.16 µM
[36] = second compound 1 µM, first compound 10 µM
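Also: spheroids exposed to agents for 7 days before viability read.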
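For viability, T/C in this document: 100% = DMSO vehicle control viability.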

Work on `C#Cc1c(F)ccc2cc(O)cc(-c3ncc4c(N5CC6CCC(C5)N6)nc(OCC56CCCN5CC(F)C6)nc4c3F)c12` (stereo not drawn) + COc1c(OCCCN2CCOCC2)ccc2c3n(c(=NC(=O)c4cnc(N)nc4)nc12)CCN3 yielded an IC50 (second compound 0.00316 µM) of over 10 µM, an IC50 (second compound 0.01 µM) of over 10 µM and an IC50 (second compound 0.0316 µM) of over 10 µM. It also gave an IC50 (second compound 0.1 µM) of under 0.0316 µM, an IC50 (second compound 0.316 µM) of under 0.0316 µM and an IC50 (second compound 1 µM) of under 0.0316 µM. For the same compound, the viability, T/C [1] was 102%, the viability, T/C [2] was 95.9% and the viability, T/C [3] was 98.6%. It also gave a viability, T/C [4] of 94.2%, a viability, T/C [5] of 108% and a viability, T/C [6] of 117%. The viability, T/C [7] was 98.1%, the viability, T/C [8] was 97.2% and the viability, T/C [9] was 96.6%. It also gave a viability, T/C [10] of 89%, a viability, T/C [11] of 104% and a viability, T/C [12] of 98%. The viability, T/C [13] was 79.6%, the viability, T/C [14] was 88.2% and the viability, T/C [15] was 91.3%. It also gave a viability, T/C [16] of 87.2%, a viability, T/C [17] of 69.9% and a viability, T/C [18] of 57.6%. For the same compound, the viability, T/C [19] was 37.4%, the viability, T/C [20] was 42.2% and the viability, T/C [21] was 46.3%. For the same compound, the viability, T/C [22] was 39%, the viability, T/C [23] was 34.7% and the viability, T/C [24] was 18.5%. For the same compound, the viability, T/C [25] was 22.8%, the viability, T/C [26] was 22.4% and the viability, T/C [27] was 21.6%. For the same compound, the viability, T/C [28] was 13.1%, the viability, T/C [29] was 17.2% and the viability, T/C [30] was 5.33%. For the same compound, the viability, T/C [31] was 16.2%, the viability, T/C [32] was 14.6% and the viability, T/C [33] was 14.8%. The viability, T/C [34] was 9.87%, the viability, T/C [35] was 6.91% and the viability, T/C [36] was 3.67%.

`C=CC(=O)N1CCN(c2nc(=O)n(-c3c(C)ccnc3C(C)C)c3nc(-c4c(O)cccc4F)c(F)cc23)C(C)C1` (stereo not drawn) + COc1c(OCCCN2CCOCC2)ccc2c3n(c(=NC(=O)c4cnc(N)nc4)nc12)CCN3 showed an IC50 (second compound 0.00316 µM) of over 10 µM, an IC50 (second compound 0.01 µM) of over 10 µM and an IC50 (second compound 0.0316 µM) of over 10 µM. For the same compound, the IC50 (second compound 0.1 µM) was under 0.0316 µM, the IC50 (second compound 0.316 µM) was under 0.0316 µM and the IC50 (second compound 1 µM) was under 0.0316 µM. For the same compound, the viability, T/C [1] was 97.2%, the viability, T/C [2] was 109% and the viability, T/C [3] was 125%. For the same compound, the viability, T/C [4] was 89.9%, the viability, T/C [5] was 95.8% and the viability, T/C [6] was 99.4%. It also gave a viability, T/C [7] of 105%, a viability, T/C [8] of 90% and a viability, T/C [9] of 94.1%. For the same compound, the viability, T/C [10] was 97.5%, the viability, T/C [11] was 101% and the viability, T/C [12] was 92.4%. The viability, T/C [13] was 95.4%, the viability, T/C [14] was 86.7% and the viability, T/C [15] was 86.6%. It also gave a viability, T/C [16] of 88.2%, a viability, T/C [17] of 95.1% and a viability, T/C [18] of 96.9%. The viability, T/C [19] was 49.2%, the viability, T/C [20] was 48.2% and the viability, T/C [21] was 57.6%. For the same compound, the viability, T/C [22] was 62%, the viability, T/C [23] was 75.2% and the viability, T/C [24] was 74.3%. For the same compound, the viability, T/C [25] was 20.3%, the viability, T/C [26] was 20.9% and the viability, T/C [27] was 21.1%. For the same compound, the viability, T/C [28] was 22.6%, the viability, T/C [29] was 22.9% and the viability, T/C [30] was 28.9%. For the same compound, the viability, T/C [31] was 17%, the viability, T/C [32] was 18.3% and the viability, T/C [33] was 14.3%. The viability, T/C [34] was 15.5%, the viability, T/C [35] was 17.5% and the viability, T/C [36] was 19%.

`CC(Cn1ccc(-c2ccc(C#N)c(Cl)c2)n1)NC(=O)c1cc(C(C)O)[nH]n1` (stereo not drawn) + COc1c(OCCCN2CCOCC2)ccc2c3n(c(=NC(=O)c4cnc(N)nc4)nc12)CCN3 showed an IC50 (second compound 0.00316 µM) of over 10 µM, an IC50 (second compound 0.01 µM) of over 10 µM and an IC50 (second compound 0.0316 µM) of over 10 µM. It also gave an IC50 (second compound 0.1 µM) of under 0.0316 µM, an IC50 (second compound 0.316 µM) of under 0.0316 µM and an IC50 (second compound 1 µM) of under 0.0316 µM. For the same compound, the viability, T/C [1] was 96.6%, the viability, T/C [2] was 92.7% and the viability, T/C [3] was 95.7%. For the same compound, the viability, T/C [4] was 88.5%, the viability, T/C [5] was 93.9% and the viability, T/C [6] was 92.3%. It also gave a viability, T/C [7] of 93%, a viability, T/C [8] of 96.8% and a viability, T/C [9] of 103%. For the same compound, the viability, T/C [10] was 94.8%, the viability, T/C [11] was 98.6% and the viability, T/C [12] was 96.5%. It also gave a viability, T/C [13] of 107%, a viability, T/C [14] of 81% and a viability, T/C [15] of 95.9%. The viability, T/C [16] was 95.7%, the viability, T/C [17] was 109% and the viability, T/C [18] was 88.2%. For the same compound, the viability, T/C [19] was 49.1%, the viability, T/C [20] was 50% and the viability, T/C [21] was 49.1%. It also gave a viability, T/C [22] of 48.9%, a viability, T/C [23] of 48.2% and a viability, T/C [24] of 54.7%. For the same compound, the viability, T/C [25] was 23.3%, the viability, T/C [26] was 24.2% and the viability, T/C [27] was 18.5%. The viability, T/C [28] was 21.6%, the viability, T/C [29] was 27.5% and the viability, T/C [30] was 23.1%. It also gave a viability, T/C [31] of 18.8%, a viability, T/C [32] of 15.6% and a viability, T/C [33] of 16.6%. It also gave a viability, T/C [34] of 15.2%, a viability, T/C [35] of 18.7% and a viability, T/C [36] of 16.1%.

`Cn1nccc1Nc1nccc(-c2ccn(C(CO)c3ccc(Cl)c(F)c3)c(=O)c2)n1` (stereo not drawn) + COc1c(OCCCN2CCOCC2)ccc2c3n(c(=NC(=O)c4cnc(N)nc4)nc12)CCN3 gave an IC50 (second compound 0.00316 µM) of over 10 µM, an IC50 (second compound 0.01 µM) of over 10 µM and an IC50 (second compound 0.0316 µM) of over 10 µM. The IC50 (second compound 0.1 µM) was under 0.0316 µM, the IC50 (second compound 0.316 µM) was under 0.0316 µM and the IC50 (second compound 1 µM) was under 0.0316 µM. It also gave a viability, T/C [1] of 95.1%, a viability, T/C [2] of 93% and a viability, T/C [3] of 102%. For the same compound, the viability, T/C [4] was 98.9%, the viability, T/C [5] was 109% and the viability, T/C [6] was 111%. It also gave a viability, T/C [7] of 97.5%, a viability, T/C [8] of 87.7% and a viability, T/C [9] of 119%. It also gave a viability, T/C [10] of 97.5%, a viability, T/C [11] of 123% and a viability, T/C [12] of 104%. It also gave a viability, T/C [13] of 97.7%, a viability, T/C [14] of 85% and a viability, T/C [15] of 93.5%. The viability, T/C [16] was 85.6%, the viability, T/C [17] was 83.4% and the viability, T/C [18] was 66%. The viability, T/C [19] was 49.7%, the viability, T/C [20] was 44.1% and the viability, T/C [21] was 55.6%. It also gave a viability, T/C [22] of 43.9%, a viability, T/C [23] of 40.5% and a viability, T/C [24] of 42.8%. It also gave a viability, T/C [25] of 20.9%, a viability, T/C [26] of 18.9% and a viability, T/C [27] of 18.2%. The viability, T/C [28] was 19.4%, the viability, T/C [29] was 15.3% and the viability, T/C [30] was 14.5%. The viability, T/C [31] was 14.9%, the viability, T/C [32] was 15.5% and the viability, T/C [33] was 11.3%. For the same compound, the viability, T/C [34] was 9.48%, the viability, T/C [35] was 8.78% and the viability, T/C [36] was 7.89%.

From PubChem BioAssay AID1963968 (Molecular Pharmacology Branch, DTP, NCI, 2024)
